Key:
CaCo-2 cells [1] = assay: Uptake of micellar cholesterol by CaCo-2 cells with or without unlabeled cholesteryl oleate; format: cell-based, Human; conditions: CaCo-2 monolayers, 45 min at 37° C., [1,2-3H] cholesterol micelles with or without unlabeled cholesteryl oleate; p<0.001; FIG. 1A
Text: (§1) Human colon adenocarcinoma (Caco-2) cells were kindly provided by J T Rasmussen (Department of Molecular Biology Aarhus University C. F. M0llers Alle 3DK-8000 Aarhus CDenmark). Cells were routinely maintained in NUNCLON flasks in Dulbecco's […] (DMEM) supplemented with 4.5g/1 glucose. 10% heat-inactivated fetal bovine serum (FBS), 1% nonessential amino acid (NEAA), and 1% antibiotics (complete medium), as previously described (Hidalgo I J. Raub T J. Borchardt R T, Gastroenterology, (1989) ar;96(3):736-49). Once the flasks reached 80% confiuency, the cells were dispersed and seeded into 24-well plates at density 10^5 cells/well in DMEM supplemented with 10% FBS and 1% NEAA. […]
(§2) Micelles were prepared according to the method described by Kirana (Kirana C. Rogers P F, Bennett L E, Abevwardena M Y, Patten G S, J Agric Food Chem. (2005) Jun. 1; 53(1 1):4623-7) with slight modifications. […] The particle size of micelles was determined by dynamic light scattering (DLS) with use of the Malvern Zetasizer Nano series machine using latex 60 nm Nanosphere Size Standard.
Monolayers were incubated at 37° C. for 45 min in micellar solutions containing [1,2-^3H] cholesterol with or without unlabeled cholesteryl oleate. […] The cells were analyzed as described above. […]

CaCo-2 cells [2] = assay: Uptake of micellar cholesteryl oleate by CaCo-2 cells; format: in vitro ADME, Human; conditions: micelles containing [1,2-3H] cholesteryl oleate vs labeled cholesterol, FIG. 1B
Text: as §1, §2
Differentiated Caco-2 cells were incubated at 37° C. for 1, 3 and 5 hours with micellar solutions containing ^3H-labelled cholesteryl oleate according to the method described above. […] For quantitative analysis ^14C-cholesterol was used as an external standard to correct for the extraction efficiency. […]

[3] = tested on: wild type male mice (C57BL/6J); assay: Intestinal absorption of cholesteryl oleate in mice, plasma dual isotope ratio method; format: in vivo; conditions: oral bolus [14C]-cholesteryl oleate in skimmed milk, plasma after three days; p<0.001; FIG. 2B
Description: The net intestinal absorption of cholesterol and cholesteryl esters was measured using the plasma dual isotope ratio method described in Wang et al (Journal of Lipid Research, [2003] 44, 1042-1059). This method is based on the simultaneous intragastric (IG) and intravenous (IV) administration of [^3H] -cholesterol and [^14C] -cholesterol, respectively, and measurement of plasma cholesterol isotope ratios at a set point in time. By definition, the IV [^14C]-cholesterol dose corresponds to “100% absorption”, whereas the [^3H]-cholesterol found in the blood reflects the absorption by the gastrointestinal tract. The method allows correction for post-absorptive cholesterol metabolism and for colonic handling of the malabsorbed labelled cholesterol by defining Fifteen wild type male mice (C57BL/6J), age of 5 weeks were randomly assigned into 3 groups. An amount of 2.5 μCi of [^3H]-cholesterol was dissolved in 100 μl of phosphate buffered saline (PBS) and injected into the tail vein of non fasted and not-anesthetized animals. The animal were then given an oral bolus (IG) dose of either [^14C]-cholesterol, [^14C]-cholesterol+unlabeled cholesteryl oleate (molar ratio 1:1) or [^14C]-cholesteryl oleate dissolved in skimmed milk. […] The percent of cholesterol absorption in plasma was calculated using (1).

[4] = tested on: wild type male mice (C57BL/6J); assay: Intestinal absorption of cholesterol in mice, plasma dual isotope ratio method, with added cholesteryl oleate; format: in vivo; conditions: oral bolus [14C]-cholesterol + unlabeled cholesteryl oleate (molar ratio 1:1) in skimmed milk, plasma after three days; p<0.05; FIG. 2A
Description: The net intestinal absorption of cholesterol and cholesteryl esters was measured using the plasma dual isotope ratio method described in Wang et al (Journal of Lipid Research, [2003] 44, 1042-1059). This method is based on the simultaneous intragastric (IG) and intravenous (IV) administration of […], and measurement of plasma cholesterol isotope ratios at a set point in time. By definition, the […] corresponds to “100% absorption”, whereas the [^3H]-cholesterol found in the blood reflects the absorption by the gastrointestinal tract. The method allows correction for post-absorptive cholesterol metabolism and for colonic handling of the malabsorbed labelled cholesterol by […] Fifteen wild type male mice (C57BL/6J), age of 5 weeks were randomly assigned into 3 groups. An amount of 2.5 μCi of [^3H]-cholesterol was dissolved in 100 μl of phosphate buffered saline (PBS) and injected into the tail vein of non fasted and not-anesthetized animals. The animal were then given an oral bolus (IG) dose of either [^14C]-cholesterol, [^14C]-cholesterol+unlabeled cholesteryl oleate (molar ratio 1:1) or [^14C]-cholesteryl oleate dissolved in skimmed milk. […] The percent of cholesterol absorption in plasma was calculated using (1).

Transgenic mice = assay: Aorta surface covered by atherosclerotic lesions, en face ORO staining; format: in vivo; conditions: 28 weeks
Text: The surface of aorta covered with atherosclerotic lesions was quantified as described by Palinski et al. (1994) and Zampolli et al. (2006). Non-fasted animals were anesthetized with pentobarbital injected intraperitoneally. Next, maximum volume of blood was collected from the heart by direct cardiac puncture of the right ventricle. Blood was kept for further analyses as described above. The heart and arterial tree were then flushed with a heparin-containing cardioplegic solution via a cannula inserted into the left ventricle, followed by perfusion with formalin for 5 minutes. The arterial tree was exposed, branching arteries were removed and entire aorta was dissected from the aortic arch down to the iliac bifurcation. Using a stereomicroscope, aortas were cleaned from periadventitial tissue; remaining branches were cut off and opened longitudinally by incision following the inner curvature of the aortic arch and the ventral side of the aorta. Additional incisions followed the outer curvature of the arch to the subclavian artery. An Oil Red 0 (ORO) staining solution was prepared by diluting the ORO stock solution (5 mg/ml in 2-propanol; Sigma Aldrich) with deionized water (6:4). Dissected aortas were stained for 30 minutes with ORO, followed by rinsing with 2-propanol and deionized water. Stained aortas were then laid flat on the microscope slide with endothelial side facing upwards. The tissues were mounted with aqueous mounting agent (Aquatex®, Merck Chemicals, Darmstadt, Germany) and covered with glass slide cover slip.
Digital images of the slides were obtained through the 48-bit color scanner (Canoscan 9950F, Canon) with 1200 DPI resolution. The images were captured in Photoshop CS3 Extended software and converted to gray scale. After further processing, including sharpness, contrast and brightness adjustments, and the image of aorta was printed out in two copies. […] Images of a hand-drawn aorta outlines and regions (patches) matching atherosclerotic lesions were then scanned and re-imported into Adobe Photoshop and the images were then evaluated obtain the percent of aorta covered with atherosclerotic lesions. Briefly, in the digitized image of entire aorta and the image of the patches corresponding to lesions, red outlined areas were converted to black and the blackness values for all pixels in the image were summed and counted.
Transgenic mice were randomized into 5 dietary regiments: (1) Normal chow (NC), (2) NC+0.2% cholesterol oleate (CLE), (3) Western type diet (WD) containing 0.2% cholesterol, (4) WD containing 0.2% cholesterol and 0.2% CLE, (5) WD containing 0.1% cholesterol and 0.1% CLE. The extent of the lesions was quantified as percent area positive to lipid staining by ORO in the entire aorta after 28 weeks of experimental treatments.

Structure (SMILES): CCCCCCCC/C=C\CCCCCCCC(=O)O[C@H]1CC[C@@]2(C)C(=CC[C@H]3[C@@H]4CC[C@H]([C@H](C)CCCC(C)C)[C@@]4(C)CC[C@@H]32)C1 [cholesteryl oleate]
- more cholesterol accumulated by cells incubated with cholesterol micelles alone compared to micelles containing both cholesterol and cholesteryl oleate (CaCo-2 cells [1]): 30%
- fold less labeled sterol in cells incubated with cholesteryl oleate micelles compared to cholesterol micelles (CaCo-2 cells [2]): approximately 2 fold
- reduction in cholesterol uptake compared to mice treated with [14C]-cholesterol [3]: 50%
- reduction in cholesterol adsorption compared to [14C]-cholesterol treated mice [4]: 12%
- effect on atherosclerotic lesions in Western type diet (Transgenic mice; WD vs WD+0.2% CLE and WD+0.1% CLE, FIGS. 3 and 4): lowered atherosclerotic lesions
- rate of atherosclerosis, WD+0.2% CLE compared with WD+0.1% CLE (Transgenic mice; mice fed WD+0.2% CLE): higher rates of atherosclerosis than mice fed with WD+0.1% CLE
- total plaque area (percent area positive to ORO in the entire aorta) (Transgenic mice; normal chow (NC)+0.2% CLE): 1.2±0.9%
- difference in plaque formation between NC and NC+0.2% CLE (Transgenic mice; normal chow): no difference between those two treatments
